Among the test systems are MOLT-4 leukemia; SK-MEL-5 melanoma; A498 renal; HT29 colon; NCI/ADR-RES ovarian; HL-60(TB) leukemia; COLO 205 colon; HOP-62 NSCLC; SNB-19 CNS; HCT-116 colon.
What all share (test): NCI tumour cell line growth inhibition, 48 h

Structures are written as SMILES.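 Where inhibition never reached the appropriate level, the endpoint shown equals the highest concentration tested. Otherwise, values were interpolated linearly from a five-concentration, 48-hour dose response in 96-well plates. GI50 = concentration required for 50% inhibition of growth. At the TGI there is no net growth.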 A value given as a limit tells only on which side of the number the result lay.

On to `COCn1c2ccc(OC(C)=O)cc2c2c(=O)oc(C)nc21`, for which the TGI in the assay with MOLT-4 leukemia, in the assay on SK-MEL-5 melanoma, in the assay with A498 renal, in the assay on HT29 colon, with NCI/ADR-RES ovarian and in the assay on HL-60(TB) leukemia was greater than 100 µM throughout. Further, the TGI with COLO 205 colon, in the assay with HOP-62 NSCLC, in the assay with SNB-19 CNS and in the assay on HCT-116 colon was greater than 100 µM in each case.
With `O=C(NCC1Nc2ccncc2S(=O)(=O)N1)c1ccc(Br)cc1` (stereo not given), the TGI in the assay on MOLT-4 leukemia, in the assay on SK-MEL-5 melanoma, with A498 renal, with HT29 colon, with NCI/ADR-RES ovarian and in the assay with HL-60(TB) leukemia was greater than 100 µM each time. In addition, the TGI in the assay with COLO 205 colon, in the assay on HOP-62 NSCLC, in the assay on SNB-19 CNS and in the assay on HCT-116 colon was greater than 100 µM in each case.
Take `CN(NC(=O)/C(=C/c1ccc(O)cc1)NC(=O)c1ccccc1)c1ccnc2cc(Cl)ccc12`: the TGI in the assay on MOLT-4 leukemia turned out to be 43 µM; with SK-MEL-5 melanoma it was 37.5 µM; in the assay on A498 renal it was 32.4 µM; with HT29 colon, 23 µM; in the assay on NCI/ADR-RES ovarian, 38 µM; in the assay on HL-60(TB) leukemia, 5.84 µM. The TGI in the assay with COLO 205 colon is 36.2 µM; in the assay with HOP-62 NSCLC it was 30.1 µM; with SNB-19 CNS it was 32.6 µM; with HCT-116 colon, 38.2 µM.
In the case of `O=C1Cc2c(-c3ccc(Cl)cc3)cc(-c3ccccc3)nc2-c2ccccc2N1`, the TGI was greater than 76.5 µM in the assay with MOLT-4 leukemia; 21 µM in the assay with SK-MEL-5 melanoma; 6.67 µM in the assay with A498 renal; greater than 42.8 µM with HT29 colon; 26.4 µM with NCI/ADR-RES ovarian; greater than 100 µM with HL-60(TB) leukemia. For the same molecule, the TGI is 12.9 µM in the assay on COLO 205 colon, 53.3 µM with HOP-62 NSCLC, 7.31 µM in the assay on SNB-19 CNS and 15.3 µM in the assay on HCT-116 colon.
On to `COc1cc(Oc2nc3ccccc3nc2C(=O)O)cc(OC)c1OC`, for which the TGI in the assay on MOLT-4 leukemia, with SK-MEL-5 melanoma, in the assay on A498 renal, in the assay on HT29 colon, with NCI/ADR-RES ovarian and in the assay with HL-60(TB) leukemia was greater than 100 µM each time. Further, the TGI in the assay on COLO 205 colon, in the assay on HOP-62 NSCLC, with SNB-19 CNS and in the assay on HCT-116 colon was greater than 100 µM in each case.
As to `COc1cc2c(cc1OCCCC(=O)Nc1cc(C(=O)Nc3cc(C(=O)Nc4cc(C(=O)NCCCN(C)C)n(C)c4)n(C)c3)n(C)c1)N=C[C@@H]1CCCN1C2=O`, the TGI in the assay with MOLT-4 leukemia was greater than 100 µM; in the assay with SK-MEL-5 melanoma, 6.65 µM; in the assay with A498 renal it was 26.4 µM; in the assay on HT29 colon, 4.1 µM; in the assay with NCI/ADR-RES ovarian, 6.21 µM; in the assay with HL-60(TB) leukemia, 3.42 µM. The TGI in the assay on COLO 205 colon worked out at 3.15 µM; with HOP-62 NSCLC, 9.83 µM; in the assay with SNB-19 CNS, 17.6 µM; in the assay with HCT-116 colon it was 3.45 µM.
Take `COCn1c(C)c(C)c2c(=O)oc(=O)[nH]c21`: the TGI in the assay on MOLT-4 leukemia, in the assay on SK-MEL-5 melanoma, in the assay with A498 renal, in the assay on HT29 colon, in the assay with NCI/ADR-RES ovarian and in the assay with HL-60(TB) leukemia was greater than 100 µM in each case. Besides, the TGI in the assay with COLO 205 colon, with HOP-62 NSCLC, in the assay on SNB-19 CNS and in the assay with HCT-116 colon was greater than 100 µM each time.
Consider `CN(Cc1c2ccccc2cc2ccccc12)S(=O)(=O)c1ccc(-c2c3nc(c(-c4ccc(S(=O)(=O)N(C)Cc5c6ccccc6cc6ccccc56)cc4)c4ccc([nH]4)c(-c4ccc(S(=O)(=O)N(C)Cc5c6ccccc6cc6ccccc56)cc4)c4nc(c(-c5ccc(S(=O)(=O)N(C)Cc6c7ccccc7cc7ccccc67)cc5)c5ccc2[nH]5)C=C4)C=C3)cc1`, for which the TGI with MOLT-4 leukemia, in the assay with SK-MEL-5 melanoma, in the assay on A498 renal, in the assay on HT29 colon, in the assay on NCI/ADR-RES ovarian and in the assay on HL-60(TB) leukemia was greater than 100 µM throughout. Also, the TGI in the assay on COLO 205 colon was greater than 100 µM; with HOP-62 NSCLC, 84.6 µM; in the assay on SNB-19 CNS it was greater than 100 µM; in the assay with HCT-116 colon, greater than 100 µM.
As to `Cc1cc(NS(=O)(=O)c2ccc(NC(=O)c3ccc4nc5ccccc5c(Nc5ccc(S(=O)(=O)N=C(N)N)cc5)c4c3)cc2)no1`, the TGI with MOLT-4 leukemia turned out to be 40.8 µM; with SK-MEL-5 melanoma, 30.5 µM; with A498 renal it was 33.7 µM; in the assay on HT29 colon, 38.2 µM; in the assay on NCI/ADR-RES ovarian it was 57.5 µM; in the assay with HL-60(TB) leukemia, 46.2 µM. Further, the TGI stood at 38.5 µM in the assay on COLO 205 colon, 35.8 µM with HOP-62 NSCLC, 94.3 µM with SNB-19 CNS and 35.6 µM in the assay on HCT-116 colon.
On to `NNC(=O)CC(=O)Nc1ccc(Cl)cc1`, for which the TGI in the assay with MOLT-4 leukemia, with SK-MEL-5 melanoma, with A498 renal, with HT29 colon, in the assay on NCI/ADR-RES ovarian and in the assay with HL-60(TB) leukemia was greater than 100 µM in each case. For the same molecule, the TGI in the assay on COLO 205 colon, with HOP-62 NSCLC, in the assay on SNB-19 CNS and with HCT-116 colon was greater than 100 µM throughout.
As to `COc1cc2c(cc1OC)C1CN3C(=O)CCC3C(O)C1c1cc(OC)c(OC)cc1-2` (stereo not given), the TGI with MOLT-4 leukemia, with SK-MEL-5 melanoma, in the assay with A498 renal, with HT29 colon, in the assay with NCI/ADR-RES ovarian and in the assay with HL-60(TB) leukemia was greater than 100 µM in each case. Moreover, the TGI in the assay with COLO 205 colon, with HOP-62 NSCLC, in the assay with SNB-19 CNS and in the assay on HCT-116 colon was greater than 100 µM each time.
For `Oc1nc(N/N=C/c2c[nH]c3ccccc23)[nH]c1/C=C1\C=Nc2ccccc21`, the TGI with MOLT-4 leukemia is 22.3 µM; in the assay on SK-MEL-5 melanoma, 38.1 µM; with A498 renal, 27.8 µM; in the assay on HT29 colon, 47.5 µM; in the assay with NCI/ADR-RES ovarian, 84.5 µM; with HL-60(TB) leukemia, 32.9 µM. Also, the TGI with COLO 205 colon was 26.7 µM; in the assay on HOP-62 NSCLC, 80.9 µM; in the assay on SNB-19 CNS it was greater than 100 µM; in the assay with HCT-116 colon it was 36.7 µM.
For the molecule `Cc1cc2c(cc1-c1cc3c(cc1C)C(C(C)C)=C(O)C(=O)/C3=C\Nc1nc(-c3ccccc3)cs1)/C(=C/Nc1nc(-c3ccccc3)cs1)C(=O)C(O)=C2C(C)C`, the TGI is greater than 100 µM in the assay on MOLT-4 leukemia; 31.4 µM with SK-MEL-5 melanoma; 98.6 µM with A498 renal; 50.2 µM in the assay on HT29 colon; 63.9 µM with NCI/ADR-RES ovarian; greater than 100 µM in the assay on HL-60(TB) leukemia. In addition, the TGI in the assay with COLO 205 colon is greater than 100 µM; in the assay with HOP-62 NSCLC it was 31.7 µM; in the assay on SNB-19 CNS it was 37.9 µM; with HCT-116 colon, greater than 100 µM.
For the molecule `CCN1CCN(C(=O)[C@]23CC[C@@H](C)[C@H](C)[C@@H]2C2=CC[C@@H]4[C@@]5(C)C/C(=C/c6cccnc6)C(=O)C(C)(C)[C@@H]5CC[C@@]4(C)[C@]2(C)CC3)CC1`, the GI50 is 2.45 µM with MOLT-4 leukemia; 1.75 µM in the assay with SK-MEL-5 melanoma; 1.9 µM in the assay on A498 renal; 1.93 µM in the assay with HT29 colon; 1.59 µM with NCI/ADR-RES ovarian; 2.08 µM with HL-60(TB) leukemia. The GI50 in the assay on COLO 205 colon was 2.19 µM; in the assay on HOP-62 NSCLC, 2.43 µM; in the assay with SNB-19 CNS it was 1.79 µM; with HCT-116 colon, 1.69 µM. The TGI with MOLT-4 leukemia is 7.38 µM; in the assay with SK-MEL-5 melanoma, 3.14 µM; in the assay on A498 renal, 4.05 µM; in the assay on HT29 colon, 5.36 µM; with NCI/ADR-RES ovarian, 3.32 µM; with HL-60(TB) leukemia it was 5 µM. Moreover, the TGI in the assay with COLO 205 colon was 5.12 µM; with HOP-62 NSCLC it was 5.86 µM; in the assay on SNB-19 CNS, 3.74 µM; with HCT-116 colon it was 3.55 µM.
As to `COc1cc(/C=C2\C[C@H]3[C@@H]4CC=C5C[C@@H](N6CCCC6)CC[C@]5(C)[C@H]4CC[C@]3(C)[C@H]2O)cc(OC)c1OC`, the TGI is greater than 56.2 µM in the assay on MOLT-4 leukemia; 30 µM in the assay on SK-MEL-5 melanoma; 30.2 µM in the assay on A498 renal; 14.5 µM in the assay with HT29 colon; 40.8 µM with NCI/ADR-RES ovarian; 21.9 µM in the assay with HL-60(TB) leukemia. Besides, the TGI came out at 36.5 µM in the assay with COLO 205 colon, 30.6 µM in the assay with HOP-62 NSCLC, 35.8 µM in the assay with SNB-19 CNS and 27.6 µM with HCT-116 colon.
In the case of `CC1=NN(c2cccc(Cl)c2)C2(C1)C(Cl)C(=O)N2c1nc2ccccc2s1` (stereo not given), the TGI is 38.6 µM in the assay with MOLT-4 leukemia; 44.4 µM in the assay on SK-MEL-5 melanoma; greater than 100 µM with A498 renal; greater than 100 µM with HT29 colon; 69.7 µM with NCI/ADR-RES ovarian; 53.4 µM with HL-60(TB) leukemia. Besides, the TGI with COLO 205 colon is 31.9 µM; in the assay on HOP-62 NSCLC, 64.8 µM; with SNB-19 CNS, greater than 100 µM; in the assay with HCT-116 colon, 40.4 µM.

The record behind these values is PubChem BioAssay (NCI).
